Each compound was assayed on HT-29 cells (assay: Necrosis assay (TNF-α/Smac mimetic/z-VAD induced necrosis, cell viability by ATP level)). Conditions: HT-29, TNF-α + Smac mimetic + z-VAD, 24 hrs, ATP level; values given as ranges in nM; read-out: EC50 (inhibition of necrosis in HT-29 cells).
Assay type: cell-based
Description: HT-29 cells were cultured in McCoy's 5 A culture medium (Invitrogen). On day one, HT-29 cells were plated in 96-well assay plates at density of 2,500-3,500 cells per well. On day two, necrosis were induced by adding 20 ng/ml TNF-α (T), 100 nM Smac mimetic (S), and […] z-VAD (Z). At the same time, […] compound from a chemical library of ˜200,000 compounds was delivered into each well. After 24 hrs treatment, cell viability was determined by measuring ATP level using the CellTiter-Glo Luminescent Cell Viability Assay kit. A CellTiter-Glo Assay (Promega) was performed according to the manufacturer's instructions Luminescence was recorded with a PerkinElmer EnSpire Multimode Plate Reader. Survived cells were normalized to those cells treated with DMSO. Nec-1 was used as a positive control for screening necrosis inhibitors. Data are represented as mean±standard deviation of duplicates
Dose-dependent inhibition of necrosis by the compounds in HT-29 cells were determined by measuring ATP levels as described above.
`CN(Cc1cc(F)cc(F)c1F)C(=O)C1(C)CCCCC1` [Compound 65, N,1-dimethyl-N-(2,3,5-trifluorobenzyl)cyclohexanecarboxamide] was tested, and the EC50 was 1 to 1000 nM.
For `CCC(C)(C)C(=O)NCc1cc(F)cc(F)c1F` [Compound 70, 2,2-dimethyl-N-(2,3,5-trifluorobenzyl)butanamide], the EC50 was 1 to 1000 nM.
Compound `CCC(C)(C)C(=O)N(CCO)Cc1cc(F)cc(F)c1F` [Compound 77, N-(2-hydroxyethyl)-2,2-dimethyl-N-(2,3,5-trifluorobenzyl)butanamide] has an EC50 of 1 to 1000 nM.
Work on `CN(Cc1cc(F)cc(F)c1F)C(=O)C1(C(F)(F)F)CCC1` [Compound 84, N-methyl-N-(2,3,5-trifluorobenzyl)-1-(trifluoromethyl)cyclobutanecarboxamide] yielded an EC50 of 1 to 1000 nM.
Work on `CCC(C)(C)C(=O)N(C)Cc1ccccc1` [Compound 90, N-benzyl-N,2,2-trimethylbutanamide] yielded an EC50 of 1 to 1000 nM.
In the case of `CCC(C)(C)C(=O)N(C)Cc1ccc(F)c(F)c1` [Compound 91, N-(3,4-difluorobenzyl)-N,2,2-trimethylbutanamide], the EC50 is reported as 1 to 1000 nM.
In the case of `CCC(C)(C)C(=O)N(O)Cc1cc(F)cc(F)c1F` [Compound 93, N-hydroxy-2,2-dimethyl-N-(2,3,5-trifluorobenzyl)butanamide], the EC50 is reported as 1 to 1000 nM.
In the case of `CCC(C)(C)C(=O)N(O)Cc1ccc(F)cc1` [Compound 94, N-(4-fluorobenzyl)-N-hydroxy-2,2-dimethylbutanamide], the EC50 is reported as 1 to 1000 nM.
Work on `CCC(C)(C)C(=O)N(O)Cc1ccc(F)c(F)c1` [Compound 95, N-(3,4-difluorobenzyl)-N-hydroxy-2,2-dimethylbutanamide] yielded an EC50 of 1 to 1000 nM.
With `CCC(C)(C)C(=O)N(O)Cc1ccc(F)cc1F` [Compound 96, N-(2,4-difluorobenzyl)-N-hydroxy-2,2-dimethylbutanamide] the EC50 was 1 to 1000 nM.
Compound `CCC(C)(C)C(=O)N(O)Cc1ccc(F)c(F)c1F` [Compound 97, N-hydroxy-2,2-dimethyl-N-(2,3,4-trifluorobenzyl)butanamide] has an EC50 of 1 to 1000 nM.
`CCC(C)(C)C(=O)N(O)Cc1cc(F)c(F)cc1F` [Compound 98, N-hydroxy-2,2-dimethyl-N-(2,4,5-trifluorobenzyl)butanamide] showed an EC50 of 1 to 1000 nM.

Same assay, conditions: Homo sapiens, HT-29, 24 h, HT-29, TNF-α + Smac mimetic + z-VAD, 24 hrs, ATP level; values given as ranges in uM; read-out: EC50 (inhibition of necrosis in HT-29 cells)
In the case of `CN(Cc1ccccc1F)C(=O)CC(C)(C)C` [Compound 59, N-(2-fluorobenzyl)-N,3,3-trimethylbutanamide], the EC50 is reported as 1000 to 10000 nM.
In the case of `CN(Cc1ccccc1F)C(=O)C1CCCCC1` [Compound 60, N-(2-fluorobenzyl)-N-methylcyclohexanecarboxamide], the EC50 is reported as 1000 to 10000 nM.
For `CN(Cc1ccccc1F)C(=O)c1ccccc1` [Compound 61, N-(2-fluorobenzyl)-N-methylbenzamide], the EC50 was 1000 to 100000 nM.
`CN(Cc1ccccc1F)C(=O)C1CC1` [Compound 62, N-(2-fluorobenzyl)-N-methylcyclopropanecarboxamide] was tested, and the EC50 was 1000 to 100000 nM.
For `CCC(C)(C)C(=O)N(CCCOC)Cc1cccc(F)c1` [Compound 63, N-(3-fluorobenzyl)-N-(3-methoxypropyl)-2,2-dimethylbutanamide], the EC50 was 1000 to 100000 nM.
In the case of `CCC(C)(C)C(=O)N(Cc1cccc(F)c1)CC1CC1` [Compound 64, N-(cyclopropylmethyl)-N-(3-fluorobenzyl)-2,2-dimethylbutanamide], the EC50 is reported as 1000 to 100000 nM.
For `CN(Cc1cc(F)c(F)c(F)c1)C(=O)C(C)(C)CO` [Compound 66, 3-hydroxy-N,2,2-trimethyl-N-(3,4,5-trifluorobenzyl)propanamide], the EC50 was 1000 to 100000 nM.
With `COC(C)(C)C(=O)N(C)Cc1cc(F)cc(F)c1F` [Compound 67, 2-methoxy-N,2-dimethyl-N-(2,3,5-trifluorobenzyl)propanamide] the EC50 was 1000 to 10000 nM.
`CNCC(C)(C)C(=O)N(C)Cc1cc(F)c(F)c(F)c1` [Compound 68, N,2,2-trimethyl-3-(methylamino)-N-(3,4,5-trifluorobenzyl) propanamide] was tested, and the EC50 was 1000 to 100000 nM.
With `CN(Cc1cc(F)c(F)c(F)c1)C(=O)C(C)(C)C` [Compound 69, N-methyl-N-(3,4,5-trifluorobenzyl)pivalamide] the EC50 was 1000 to 10000 nM.
In the case of `COCC(C)(C)C(=O)N(C)Cc1cc(F)c(F)c(F)c1` [Compound 71, 3-methoxy-N,2,2-trimethyl-N-(3,4,5-trifluorobenzyl)propanamide], the EC50 is reported as 1000 to 100000 nM.
With `CCC(C)(CC)C(=O)N(C)Cc1cc(F)c(F)c(F)c1` [Compound 72, 2-ethyl-N,2-dimethyl-N-(3,4,5-trifluorobenzyl)butanamide] the EC50 was 1000 to 10000 nM.
With `CCC(C)(CC)C(=O)NCc1cc(F)cc(F)c1F` [Compound 73, 2-ethyl-2-methyl-N-(2,3,5-trifluorobenzyl)butanamide] the EC50 was 1000 to 10000 nM.
Work on `CCN(Cc1cc(F)cc(F)c1F)C(=O)C1CCCCC1` [Compound 74, N-ethyl-N-(2,3,5-trifluorobenzyl)cyclohexanecarboxamide] yielded an EC50 of 1000 to 100000 nM.
In the case of `CN(Cc1cc(F)cc(F)c1F)C(=O)C12CC3CC(CC(C3)C1)C2` [Compound 76, N-methyl-N-(2,3,5-trifluorobenzyl)adamantane-1-carboxamide], the EC50 is reported as 1000 to 100000 nM.
In the case of `CN(Cc1cc(F)cc(F)c1F)[S+]([O-])C(C)(C)C` (stereo not drawn) [Compound 78, N,2-dimethyl-N-(2,3,5-trifluorobenzyl)propane-2-sulfinamide], the EC50 is reported as 1000 to 100000 nM.
For `CN(Cc1cc(F)cc(F)c1F)S(=O)(=O)C1CCCCC1` [Compound 79, N-methyl-N-(2,3,5-trifluorobenzyl)cyclohexanesulfonamide], the EC50 was 1000 to 100000 nM.
For `CN(Cc1cc(F)cc(F)c1F)C(=O)C1(C)CC1` [Compound 80, N,1-dimethyl-N-(2,3,5-trifluorobenzyl)cyclopropanecarboxamide], the EC50 was 1000 to 100000 nM.
In the case of `CN(Cc1cc(F)c(F)c(F)c1)C(=O)C1C(C)(C)C1(C)C` [Compound 81, N,2,2,3,3-pentamethyl-N-(3,4,5-trifluorobenzyl)-cyclopropanecarboxamide], the EC50 is reported as 1000 to 100000 nM.
Work on `CN(Cc1cc(F)cc(F)c1F)C(=O)C1(c2ccccc2)CC1` [Compound 82, N-methyl-1-phenyl-N-(2,3,5-trifluorobenzyl)cyclopropanecarboxamide] yielded an EC50 of 1000 to 100000 nM.
Work on `CN(Cc1cc(F)cc(F)c1F)C(=O)C1CCC1` [Compound 83, N-methyl-N-(2,3,5-trifluorobenzyl)cyclobutanecarboxamide] yielded an EC50 of 1000 to 10000 nM.
In the case of `CN(Cc1cc(F)c(F)c(F)c1)C(=O)C1CCCC1` [Compound 85, N-methyl-N-(3,4,5-trifluorobenzyl)cyclopentanecarboxamide], the EC50 is reported as 1000 to 100000 nM.
`CN(Cc1cc(F)cc(F)c1F)C(=O)C1(C(F)(F)F)CCCC1` [Compound 86, N-methyl-N-(2,3,5-trifluorobenzyl)-1-(trifluoromethyl)cyclopentanecarboxamide] was tested, and the EC50 was 1000 to 100000 nM.
`CN(Cc1cc(F)cc(F)c1F)C(=O)C1(c2ccccc2)CCCC1` [Compound 87, N-methyl-1-phenyl-N-(2,3,5-trifluorobenzyl)cyclopentanecarboxamide] was tested, and the EC50 was 1000 to 100000 nM.
In the case of `CCC1(C(=O)N(C)Cc2cc(F)c(F)c(F)c2)CCC1` [Compound 88, 1-ethyl-N-methyl-N-(3,4,5-trifluorobenzyl)cyclobutanecarboxamide], the EC50 is reported as 1000 to 100000 nM.
For `CCC1(C(=O)N(C)Cc2cc(F)c(F)c(F)c2)CCCC1` [Compound 89, 1-ethyl-N-methyl-N-(3,4,5-trifluorobenzyl)cyclopentanecarboxamide], the EC50 was 1000 to 10000 nM.
With `CCC(C)(C)C(=O)N[C@@H](CC(=O)OC)c1ccccc1` [Compound 100, (S)-methyl 3-(2,2-dimethylbutanamido)-3-phenylpropanoate] the EC50 was 1000 to 100000 nM.
In the case of `CCC(C)(C)C(=O)N[C@@H](CC(=O)NC)c1ccccc1` [Compound 101, (S)-2,2-dimethyl-N-(3-(methylamino)-3-oxo-1-phenylpropyl)butanamide], the EC50 is reported as 1000 to 100000 nM.
`CCC(C)(C)C(=O)N[C@@H](CC(=O)NCCOCCOC)c1ccccc1` [Compound 102, (S)—N-(3-((2-(2-methoxyethoxy)ethyl)amino)-3-oxo-1-phenylpropyl)-2,2-dimethylbutanamide] showed an EC50 of 1000 to 100000 nM.
`CCNC(=O)C[C@H](NC(=O)C(C)(C)CC)c1ccccc1` [Compound 103, (S)—N-(3-(ethylamino)-3-oxo-1-phenylpropyl)-2,2-dimethylbutanamide] gave an EC50 of 1000 to 100000 nM.
In the case of `CCC(C)(C)C(=O)N[C@@H](CC(=O)NC1CCCCC1)c1ccccc1` [Compound 104, (S)—N-(3-(cyclohexylamino)-3-oxo-1-phenylpropyl)-2,2-dimethylbutanamide], the EC50 is reported as 1000 to 100000 nM.
`CCC(C)(C)C(=O)N[C@@H](CC(=O)N1CCCCC1)c1ccccc1` [Compound 105, (S)-2,2-dimethyl-N-(3-oxo-1-phenyl-3-(piperidin-1-yl)propyl)butanamide] showed an EC50 of 1000 to 100000 nM.
`CCC(C)(C)C(=O)N[C@@H](CC(=O)Nc1ccccc1)c1ccccc1` [Compound 106, (S)-2,2-dimethyl-N-(3-oxo-1-phenyl-3-(phenylamino)propyl)butanamide] showed an EC50 of 1000 to 100000 nM.
In the case of `CCC(C)(C)C(=O)N[C@@H](CC(=O)NCc1ccccc1)c1ccccc1` [Compound 107, (S)—N-(3-(benzylamino)-3-oxo-1-phenylpropyl)-2,2-dimethylbutanamide], the EC50 is reported as 1000 to 100000 nM.
Work on `CCC(C)(C)C(=O)N[C@@H](CC(=O)NCCc1ccccc1)c1ccccc1` [Compound 108, (S)-2,2-dimethyl-N-(3-oxo-3-(phenethylamino)-1-phenylpropyl)butanamide] yielded an EC50 of 1000 to 100000 nM.
`CCC(C)(C)C(=O)N[C@@H](CO)c1ccccc1` [Compound 109, (R)—N-(2-hydroxy-1-phenylethyl)-2,2-dimethylbutanamide] gave an EC50 of 1000 to 100000 nM.

Source: patent publication US10682319B2, “Necrosis inhibitors” (National Institute of Biological Sciences, Beijing, priority 2014, dated 2020)
